Source: publication PMC11627468, “Novel enzyme‐resistant pancreatic polypeptide analogs evoke pancreatic beta‐cell rest, enhance islet cell turnover, and inhibit food intake in mice” (Biofactors (Oxford, England), 2024)

What was measured:
C57BL/6 mice [1] = assay: Acute food intake in overnight fasted mice; format: in vivo; conditions: n = 6
Description: (§1) Acute in vivo studies were conducted in groups (n = 6) of 4‐month‐old male C57BL/6 mice (Envigo, Huntington, UK). All mice were maintained on standard rodent chow (10% fat, 30% protein, and 60% carbohydrate; Trouw Nutrition, Northwich, UK), and drinking water provided ad libitum. Mice were housed individually and kept in a temperature‐controlled environment (22 ± 2°C), with a 12‐h light/dark cycle. Experiments were carried out in accordance with the UK Animal Scientific Procedures Act 1986 as well as being approved by Ulster University Animal Ethics Review Committee (AWERB) committee and protected by the UK Home Office Animal project license number PPL2902, approved on April 26, 2021. Acute effects of test peptides on food intake were tested in overnight (16 h) fasted mice. Briefly, fasted mice were administered an intraperitoneal (i.p.) injection of saline vehicle (0.9% (w/v) NaCl) alone or in combination with test peptides (each at 25, 75, or 200 nmol/kg bw) and cumulative food intake measured at regular intervals, to assess the pharmacodynamic profile of the test peptides. For food intake studies, mice were provided with preweighed rodent maintenance diet in their food hopper at t = 0 min, which was then re‐weighed at each timepoint with all due care taken to account for any wastage or crumbling of the food pellets. In this regard, the investigator was present at all times during the 180‐min test period to ensure accuracy and consistency in all measurements. Furthermore, effects of PP or related peptides (25 nmol/kg bw) on glucose homeostasis and insulin secretion were evaluated in overnight fasted mice following i.p. injection of glucose alone (18 mmol/kg bw) or in combination with PP peptides (each at 25 nmol/kg bw).

[2] = biological target: T1, purified human DPP‐4 enzyme (Homo sapiens, UniProt P27487); assay: In vitro DPP‐4 degradation; format: in vitro ADME
T1 construct: purchased Sigma-Aldrich
Description: PP peptides (50 μg) were incubated at 37°C for 0–8 h with 5 μL of purified human DPP‐4 enzyme (0.01 U/L, Sigma‐Aldrich, Gillingham, UK). Degradation reactions were terminated via the addition of 10 μL 10% (v/v) trifluoroacetic acid/water solution. Reaction mixes were separated by reverse phase rp‐HPLC using a Phenomenex C‐18 analytical column (250 × 4.6 mm^2) with UV absorbance detection at 214 nm (ThermoQuest SpectraSystem UV2000 detector). HPLC peaks of interest were collected and analyzed by MALDI‐TOF MS on a Perseptive Biosystems Voyager‐DE Biospectrometry (Hertfordshire, UK).

C57BL/6 mice [3] = assay: Glucose‐stimulated plasma insulin in mice; format: in vivo; conditions: peptide 25 nmol/kg with glucose 18 mmol/kg i.p., versus glucose control; n = 6
Description: as §1, with “bw). […] Blood glucose was measured immediately using a hand‐held Ascencia Contour blood glucose meter (Bayer Healthcare, Newbury, Berkshire, UK). For plasma insulin, blood was collected in chilled fluoride/heparin‐coated microcentrifuge tubes (Sarstedt, Numbrecht, Germany) and centrifuged using a Beckman microcentrifuge (Beckman Instruments, Galway, Ireland) for 10 min at 12,000 rpm. Plasma was separated and stored at −20°C, until determination of plasma insulin by radioimmunoassay.[23]” for “bw).”

T1 sequence (P27487 whole entry): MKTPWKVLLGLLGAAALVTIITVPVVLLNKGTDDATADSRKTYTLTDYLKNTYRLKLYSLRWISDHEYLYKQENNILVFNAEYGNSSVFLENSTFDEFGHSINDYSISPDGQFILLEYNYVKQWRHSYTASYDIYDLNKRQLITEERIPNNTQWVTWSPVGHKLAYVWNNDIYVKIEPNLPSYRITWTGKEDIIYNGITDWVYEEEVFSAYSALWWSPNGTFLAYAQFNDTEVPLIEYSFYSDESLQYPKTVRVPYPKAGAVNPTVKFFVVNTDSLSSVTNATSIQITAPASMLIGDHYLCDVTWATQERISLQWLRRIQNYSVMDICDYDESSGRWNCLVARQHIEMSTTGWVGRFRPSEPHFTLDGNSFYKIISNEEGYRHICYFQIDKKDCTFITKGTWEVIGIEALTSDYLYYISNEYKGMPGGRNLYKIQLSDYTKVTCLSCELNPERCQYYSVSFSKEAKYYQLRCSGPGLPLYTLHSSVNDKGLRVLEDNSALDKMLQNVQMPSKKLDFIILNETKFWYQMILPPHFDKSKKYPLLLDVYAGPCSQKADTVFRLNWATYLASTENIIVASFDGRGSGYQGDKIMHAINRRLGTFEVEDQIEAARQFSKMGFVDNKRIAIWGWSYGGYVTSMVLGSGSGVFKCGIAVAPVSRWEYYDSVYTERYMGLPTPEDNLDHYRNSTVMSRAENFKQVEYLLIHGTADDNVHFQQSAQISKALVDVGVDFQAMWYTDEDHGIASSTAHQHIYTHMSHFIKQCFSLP

Structure (SMILES): CC[C@H](C)[C@H](NC(=O)[C@H](Cc1ccc(O)cc1)NC(=O)[C@H](CCCNC(=N)N)NC(=O)[C@H](CCCNC(=N)N)NC(=O)[C@H](CC(C)C)NC(=O)[C@H](CC(=O)O)NC(=O)[C@H](C)NC(=O)[C@H](C)NC(=O)[C@H](Cc1ccc(O)cc1)NC(=O)[C@H](CCC(N)=O)NC(=O)[C@H](C)NC(=O)[C@H](CCSC)NC(=O)[C@H](CCC(N)=O)NC(=O)[C@H](CCC(=O)O)NC(=O)[C@@H]1CCCN1C(=O)[C@@H](NC(=O)[C@H](C)NC(=O)[C@H](CC(N)=O)NC(=O)[C@H](CC(=O)O)NC(=O)CNC(=O)[C@@H]1CCCN1C(=O)[C@H](Cc1ccc(O)cc1)NC(=O)[C@@H](NC(=O)[C@@H]1CCCN1C(=O)[C@H](CCC(=O)O)NC(=O)[C@H](CC(C)C)NC(=O)[C@@H]1CCCN1C(=O)[C@H](C)N)C(C)C)[C@@H](C)O)C(=O)N[C@@H](CC(N)=O)C(=O)N[C@@H](CCSC)C(=O)N[C@@H](CC(C)C)C(=O)N[C@H](C(=O)N[C@@H](CCCNC(=N)N)C(=O)N1CCC[C@H]1C(=O)N[C@@H](CCCNC(=N)N)C(=O)N[C@@H](Cc1ccc(O)cc1)C(N)=O)[C@@H](C)O [PP, Pancreatic polypeptide]
- cumulative food intake (appetite suppression) (C57BL/6 mice [1]; 25 nmol/kg i.p., overnight (16 h) fasted mice, up to 180 min, versus saline): particularly effective
- food intake in combination with CCK‐8 (C57BL/6 mice [1]; PP peptide 25 nmol/kg with CCK‐8 25 nmol/kg i.p., fasted mice, compared with CCK‐8): significantly (p = <0.05 to 0.01) augment this effect from 90 min onwards
- food intake in combination with exendin‐4 (C57BL/6 mice [1]; PP peptide 25 nmol/kg with exendin‐4 0.25 nmol/kg i.p., fasted mice): additive appetite suppressive actions
- DPP‐4 mediated degradation, outcome in words [2]: N‐terminal di‐peptide cleavage to yield PP(3–36)
- glucose‐induced insulin secretion (plasma insulin) (C57BL/6 mice [3]): slightly decreasing (p = <0.05 to 0.01)
